Test results taken from article PMC2096561 (2004).

Target: GPR80 (GPR99, proposed P2Y15) (Homo sapiens, UniProt Q96P68)
Experiment: [3H]inositol phosphate accumulation in GPR80-expressing CHO and HEK293 cells
Format: cell-based

Chain of GPR80 (GPR99, proposed P2Y15) (Q96P68 whole entry): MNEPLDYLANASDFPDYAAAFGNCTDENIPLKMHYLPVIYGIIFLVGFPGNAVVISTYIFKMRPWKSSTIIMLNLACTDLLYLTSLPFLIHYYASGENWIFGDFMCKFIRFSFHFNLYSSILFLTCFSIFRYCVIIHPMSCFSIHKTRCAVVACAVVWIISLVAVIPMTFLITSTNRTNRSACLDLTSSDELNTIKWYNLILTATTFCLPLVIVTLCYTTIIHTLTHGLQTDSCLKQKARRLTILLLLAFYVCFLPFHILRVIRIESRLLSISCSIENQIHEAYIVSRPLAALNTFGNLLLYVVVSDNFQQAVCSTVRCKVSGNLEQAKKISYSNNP

O=C(O)CCC(=O)C(=O)O [α-ketoglutarate]
EC50: 140 ± 10 µM
